# Measured values reported in US8754115B2, “Fungicidal pyrazoles” (E I du Pont de Nemours and Company, priority 2010, dated 2014).
# Marks after values point to notes of the source that are not given here.
# Experiments:
# Assay type in all cases: in vivo
# [1] = tested on: Botrytis cinerea; assay: Test A: preventive spray on tomato seedlings, visual disease rating (tomato Botrytis)
# Procedure, shortened: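 Tomato seedlings sprayed to run-off with 200 ppm suspension (800 g/ha; asterisk marks 40 ppm), inoculated next day with Botrytis cinerea spores, held 48 h saturated at 20 °C then 3 days at 24 °C. Visual rating: 100 = full disease control, 0 = none, relative to controls.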
# [2] = tested on: Alternaria solani; assay: Test B: preventive spray on tomato seedlings, visual disease rating (tomato early blight)
# From the text: (§1) General protocol for preparing test suspensions for Tests A-F: the test compounds were first dissolved in acetone in an amount equal to 3% of the final volume and then suspended at the desired concentration (in ppm) in acetone and purified water (50/50 mix by volume) containing 250 ppm of the surfactant Trem® 014 (polyhydric alcohol esters). The resulting test suspensions were then used in Tests A-F. Spraying a 200 ppm test suspension to the point of run-off on the test plants was the equivalent of a rate of 800 g/ha. Unless otherwise indicated, the rating values indicate a 200 ppm test suspension was used. (An asterisk “*” next to the rating value indicates a 40 ppm test suspension was used.)
# (§2) The test suspension was sprayed to the point of run-off on tomato seedlings. The following day the seedlings were inoculated with a spore suspension of Alternaria solani (the causal agent of tomato early blight) and incubated in a saturated atmosphere at 27° C. for 48 h, and then moved to a growth chamber at 20° C. for 5 days, after which time visual disease ratings were made.
# (§3) Results for Tests A-F are given in Table A. In the Table, a rating of 100 indicates 100% disease control and a rating of 0 indicates no disease control (relative to the controls). A dash (-) indicates no test results. An asterisk “*” next to the rating value indicates a 40 ppm test suspension was used.
# [3] = tested on: Septoria nodorum; assay: Test C: preventive spray on wheat seedlings, visual disease rating (Septoria glume blotch)
# From the text: as §1
# as §2, with “wheat” for “tomato”, “Septoria nodorum” for “Alternaria solani”, “Septoria glume blotch)” for “tomato early blight)”, “24°” for “27°”, “6” for “5”
# as §3
# [4] = tested on: Septoria tritici; assay: Test D: preventive spray on wheat seedlings, visual disease rating (wheat leaf blotch)
# Procedure, shortened: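 Wheat seedlings were sprayed to run-off with a 200 ppm suspension (equal to 800 g/ha), or 40 ppm where marked with an asterisk, and inoculated with Septoria tritici spores the next day. Plants were kept at 24 °C in saturated air for 48 h, then at 20 °C for 19 days. Disease control was rated visually from 0 to 100 relative to controls.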
# [5] = tested on: Puccinia recondite f. sp. tritici; assay: Test E1: curative spray on wheat seedlings after inoculation, visual disease rating (wheat leaf rust)
# From the text: as §1
# Wheat seedlings were inoculated with a spore suspension of Puccinia recondite f. sp. tritici (the causal agent of wheat leaf rust) and incubated in a saturated atmosphere at 20° C. for 24 h, and then moved to a growth chamber at 20° C. for 2 days. After 2 days, the test suspension was sprayed to the point of run-off on the wheat seedlings, and then the seedlings were moved back to the growth chamber at 20° C. for 6 days. Upon removal, visual disease ratings were made.
# as §3
# [6] = tested on: Puccinia recondite f. sp. tritici; assay: Test E2: preventive spray on wheat seedlings, visual disease rating (wheat leaf rust)
# Procedure, shortened: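 Test suspension (acetone 3% of volume, acetone/water 50/50, 250 ppm Trem 014), 200 ppm unless starred (40 ppm), sprayed to run-off on wheat seedlings; inoculated next day with P. recondita spores. 24 h saturated atmosphere at 20 °C, then 7 days at 20 °C; visual rating, 100 = full control vs untreated.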
# [7] = tested on: Blumeria graminis f. sp. tritici; assay: Test F: preventive spray on wheat seedlings, visual disease rating (wheat powdery mildew)
# Procedure, shortened: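 Compound in acetone/water (50/50) with 250 ppm surfactant, sprayed to run-off on wheat seedlings at 200 ppm (≈800 g/ha) or, where marked, 40 ppm. Seedlings dusted with spores the next day, kept 8 days at 20° C., then rated visually as % disease control versus untreated plants.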
# [8] = no asterisk: standard test suspension, not 40 ppm, 100 = 100% disease control, 0 = none
# [9] = no asterisk: standard test suspension, not 40 ppm
# [10] = asterisk: 40 ppm test suspension
Compound,"Test A rating (% disease control) [1, 8] [%]","Test B rating (% disease control) [2, 9] [%]","Test C rating (% disease control) [3, 9] [%]","Test D rating (% disease control) [4, 9] [%]","Test E1 rating (% disease control) [5, 9] [%]","Test E2 rating (% disease control) [6, 9] [%]","Test F rating (% disease control) [7, 9] [%]","Test B rating (% disease control) [2, 10]","Test C rating (% disease control) [3, 10]","Test E1 rating (% disease control) [5, 10]","Test D rating (% disease control) [4, 10]","Test A rating (% disease control) [1, 10]","Test E2 rating (% disease control) [6, 10]","Test F rating (% disease control) [7, 10]"
"3-bromo-5-(2-chloro-4-fluorophenyl)-α-(2,4-difluorophenyl)-1-methyl-1H-pyrazole-4-methanol [Compound 30]",100,0,0,100,100,100,99,–,–,–,–,–,–,–
"4-(2-chloro-4-fluorophenoxy)-5-(2,4-difluorophenyl)-1,3-dimethyl-1H-pyrazole [Compound 5]",100,100,100,100,99,100,100,–,–,–,–,–,–,–
"4-[(2-chloro-4-fluorophenyl)hydroxymethyl]-5-(2,6-difluorophenyl)-1-methyl-1H-pyrazole-3-carbonitrile [Compound 53]",100,0,0,95,91,97,96,–,–,–,–,–,–,–
"4-[(4-chlorophenyl)thio]-5-(2,6-difluorophenyl)-1,3-dimethyl-1H-pyrazole [Compound 56]",100,59,0,100,0,99,100,–,–,–,–,–,–,–
"4-[[5-(2-chloro-4-fluorophenyl)-1,3-dimethyl-1H-pyrazol-4-yl]amino]-3,5-difluorobenzonitrile [Compound 40]",100,0,0,0,38,68,91,–,–,–,–,–,–,–
"5-(2,6-difluorophenyl)-α-(4-fluoro-2-methylphenyl)-3-methoxy-1-methyl-1H-pyrazole-4-methanol [Compound 157]",100,93,0,100,65,89,98,–,–,–,–,–,–,–
"Cc1nn(C)c(-c2ccccc2Br)c1C(O)c1ccc(F)cc1Cl (single isomer, unassigned) [compound 79]",98,0,0,100,53,100,99,–,–,–,–,–,–,–
"Cc1nn(C)c(-c2ccccc2Br)c1C(O)c1ccc(F)cc1Cl (single isomer, unassigned) [compound 80]",99,97,69,100,99,99,99,–,–,–,–,–,–,–
"Cc1nn(C)c(-c2c(F)cccc2F)c1C(O)c1ccc(F)cc1Cl (single isomer, unassigned) [compound 86]",99,–,–,100,–,100,100,100* %,99* %,99* %,–,–,–,–
"Cc1nn(C)c(-c2c(F)cccc2F)c1C(O)c1ccc(F)cc1Cl (single isomer, unassigned) [compound 87]",100,–,100,–,–,99,99,0* %,–,0* %,99* %,–,–,–
Cc1nn(C)c(-c2c(F)cccc2Cl)c1C(C)(O)c1ccc(F)cc1F (stereo not drawn) [Compound 29],100,64,0,–,0,100,96,–,–,–,–,–,–,–
Cc1nn(C)c(-c2ccc(F)cc2Cl)c1Nc1ccc(Cl)cc1F [Compound 45],100,0,0,100,77,97,99,33* %,0* %,0* %,100* %,98* %,95* %,100* %
Cc1nn(C)c(-c2ccc(C#N)cc2F)c1Oc1ccc(F)cc1F [compound 26],100,0,0,–,0,79,64,–,–,–,–,–,–,–
Cc1nn(C)c(-c2c(Cl)cccc2Cl)c1C(O)c1ccc(F)cc1F (stereo not drawn) [compound 74],–,100,92,99,0,99,98,–,–,–,–,–,–,–
Cc1nn(C)c(-c2ccc(F)cc2Br)c1C(O)c1ccc(F)cc1F (stereo not drawn) [compound 76],–,99,60,100,99,100,100,–,–,–,–,–,–,–
Cc1nn(C)c(-c2c(Cl)cccc2Cl)c1C(O)c1ccc(Cl)cc1 (stereo not drawn) [compound 77],–,93,0,99,0,79,89,–,–,–,–,–,–,–
Cc1nn(C)c(-c2ccccc2I)c1C(O)c1ccc(F)cc1Br (stereo not drawn) [compound 88],–,0,0,99,0,68,89,–,–,–,–,–,–,–
Cc1nn(C)c(-c2ccc(Cl)cc2Cl)c1C(=O)c1ccc(F)cc1F [compound 89],–,0,0,93,0,89,100,–,–,–,–,–,–,–
Cc1nn(C)c(-c2c(F)cccc2Cl)c1C(O)c1ccc(Cl)cc1Cl (stereo not drawn) [compound 90],–,–,–,–,–,–,100,100* %,99* %,74* %,100* %,–,100* %,–
